Measured values published in US11203577B2, “Sulfonyl-structure-containing triazinone derivatives, their preparation methods and their uses in insect killing and/or bacterium killing” (Nankai University, priority 2017, dated 2021).
Where two headings read alike, the source gives them in different places.

Tests used:
Rice sheath blight = test: In vitro fungicidal activity, PDA colony diameter; format: cell-based; conditions: 50 mg/kg, inhibition of colony diameter; read-out: Fungicidal activity (%) Rice sheath blight
[1] = test system: Cercospora brown spot of peanut; test: In vitro fungicidal activity, PDA colony diameter; format: cell-based; conditions: 96 h, 50 mg/kg, inhibition of colony diameter, read-out: Fungicidal activity (%) Cercospora brown spot of peanut
Watermelon anthracnose = test: In vitro fungicidal activity, PDA colony diameter; format: cell-based; conditions: 50 mg/kg, inhibition of colony diameter; read-out: Fungicidal activity (%) Watermelon anthracnose
Cucumber fusarium wilt = test: In vitro fungicidal activity, PDA colony diameter; format: cell-based; conditions: 96 h, 50 mg/kg, inhibition of colony diameter, read-out: Fungicidal activity (%) Cucumber fusarium wilt
Apple ring rot = test: In vitro fungicidal activity, PDA colony diameter; format: cell-based; conditions: inhibition of colony diameter
Description: (§1) Here, the test is described in an example of Alternaria solani; it can be replaced by other fungi.
(§2) In vitro testing method: Alternaria solani is inoculated to a PDA culture medium and cultured for 7 days, a fungus dish with a diameter of […] is prepared on the periphery of the colony with a punch and inoculated to a PDA culture medium that contains pesticide at a concentration of 50 mg/kg and a PDA culture medium that doesn't contain the pesticide, and are cultured for 4 days respectively; then, the colony diameters are measured, and the inhibition percentages of the pesticides are calculated by comparing with the control sample.

[2] = test system: Capsicum phytophthora blight; test: In vitro fungicidal activity, PDA colony diameter; format: cell-based; conditions: 96 h
Description: as §1, §2

Rice bakanae disease = test: In vitro fungicidal activity, PDA colony diameter; format: cell-based; conditions: 50 mg/kg, inhibition of colony diameter; read-out: Fungicidal activity (%) Rice bakanae disease
[3] = test system: Corn southern leaf blight; test: In vitro fungicidal activity, PDA colony diameter; format: cell-based; conditions: 50 mg/kg, inhibition of colony diameter; read-out: Fungicidal activity (%) Corn southern leaf blight
Potato late blight = test: microbe, parasite or virus in culture; format: cell-based; conditions: Phytophthora infestans, 96 h, read-out: Fungicidal activity (%) Potato late blight
Wheat sheath blight = test: In vitro fungicidal activity, PDA colony diameter; format: cell-based; conditions: 50 mg/kg, inhibition of colony diameter; read-out: Fungicidal activity (%) Wheat sheath blight
Wheat head blight = test: whole plant or invertebrate; format: cell-based; conditions: Triticum aestivum, read-out: Fungicidal activity (%) Wheat head blight
Tomato early blight = test: In vitro fungicidal activity, PDA colony diameter; format: cell-based, Alternaria solani; conditions: read-out: Fungicidal activity (%) Tomato early blight
Sclerotinia rot of colza = test: In vitro fungicidal activity, PDA colony diameter; format: cell-based; conditions: 96 h, 50 mg/kg, inhibition of colony diameter, read-out: Fungicidal activity (%) Sclerotinia rot of colza
[4] = test system: mosquito larvae (Culer pipiens pallens); test: Test of insecticidal activity against mosquito larvae (checked after 24 h); conditions: 24 h, read-out: Mortalities (%) against mosquito larvae
Description: Method of testing against mosquito larvae: the tested mosquito larvae are Culer pipiens pallens, a normal colony fed indoor. About 5 mg compound to be tested is weighed and loaded into a penicillin vial, 5 mL acetone (or an appropriate solvent) is added into the vial, and the vial is oscillated to dissolve the compound; thus, 1,000 ppm mother liquid is obtained. 1 mL mother liquid is weighed and added into a 100 mL beaker filled with 89 mL water, 10 mosquito larvae in the early stage of the 4th instar together with 10 mL feeding solution are poured into the beaker; thus, the concentration of the pesticide solution is 10 ppm (the pesticide solutions with other concentrations are attained by diluting the mother liquid by corresponding times). […] Water solution that contains 0.5 mL test solvent is used as a blank sample.

[5] = test system: bean aphides (Aphis laburni Kaltenbach); test: Test of insecticidal activity against aphides (leaf immersion, checked after 96 h); conditions: Aphis, 96 h, read-out: Mortalities (%) against aphides
Maize borers = test: Test of insecticidal activity against maize borers (leaf immersion); conditions: read-out: Mortalities (%) Maize borers
Armyworms = test: Test of insecticidal activity against armyworms (leaf immersion); conditions: 600 mg/kg, 3-4 days
Cotton bollworms = test: Test of insecticidal activity against cotton bollworms (pesticide mixed into feedstuff); conditions: read-out: Mortalities (%) Cotton bollworms
Description: Method of testing against cotton bollworms: the pesticide is mixed into the feedstuff, i.e., 3 mL prepared solution is added into about 27 g freshly prepared feedstuff; thus, required concentration is obtained by diluting by 10 times.

[6] = 50 mg/kg, inhibition of colony diameter

| Compound | inhibition at 50 mg/kg (Rice sheath blight) | inhibition of growth at 50 mg/kg [1] | inhibition at 50 mg/kg (Watermelon anthracnose) | inhibition of growth at 50 mg/kg (Cucumber fusarium wilt) | inhibition at 50 mg/kg (Apple ring rot) | inhibition of growth at 50 mg/kg [2] | inhibition at 50 mg/kg (Rice bakanae disease) | inhibition at 50 mg/kg [3] | inhibition of growth at 50 mg/kg (Potato late blight) | inhibition at 50 mg/kg (Wheat sheath blight) | inhibition at 50 mg/kg (Wheat head blight) | inhibition at 50 mg/kg (Tomato early blight; [6]) | inhibition of growth at 50 mg/kg (Sclerotinia rot of colza) | mortality at 10 mg/kg [4] | mortality at 10 mg/kg [5] | mortality at 100 mg/kg [5] | mortality at 600 mg/kg [5] | mortality at 600 mg/kg (Maize borers) | Mortalities (%) Armyworms (Armyworms) | mortality at 600 mg/kg (Cotton bollworms) | further results |
| --- | --- | --- | --- | --- | --- | --- | --- | --- | --- | --- | --- | --- | --- | --- | --- | --- | --- | --- | --- | --- | --- |
| COC(=O)Nc1nc2ccccc2[nH]1 [Carbendazim, reference compound] | 100% | < 50% | 100% | < 50% | < 50% | < 50% | < 50% | 100% | 100% | 100% | 100% | < 50% | 100% |  |  |  |  |  |  |  |  |
| N#Cc1c(Cl)c(Cl)c(Cl)c(C#N)c1Cl [Chlorothalonil, reference compound] | 100% | 73.3% | 91.3% | 100% | 100% | 100% | 100% | 91.3% | 86.4% | 100% | < 50% | 73.3% | < 50% |  |  |  |  |  |  |  |  |
| CC1=NNC(=O)N(NS(C)(=O)=O)C1 [Ia-1, N-(6-methyl-3-oxo-2,3-dihydro-1,2,4-triazin-4(5H)-yl)-methylsulfonylamide] | 11.1% | 26.3% | 20.8% | 0% | 31% | 46.9% | 27.8% | 20.8% | 33.3% | 63.6% | 13.3% | 9.5% | 31.7% | 55% | 100% | 100% | 100% | 0% | 5% | 40% | mortality at 5 mg/kg [5]: 25% |
| CCS(=O)(=O)NN1CC(C)=NNC1=O [Ia-2, N-(6-methyl-3-oxo-2,3-dihydro-1,2,4-triazin-4(5H)-yl)-ethylsulfonamide] | 34.9% | 15.8% | 33.3% | 5% | 20.7% | 36.7% | 50% | 29.2% | 22.2% | 63.6% | 20% | 33.3% | 56.7% | 20% | 50% | 90% | 100% | 15% | 10% | 5% |  |
| CCCS(=O)(=O)NN1CC(C)=NNC1=O [Ia-3, N-(6-methyl-3-oxo-2,3-dihydro-1,2,4-triazin-4(5H)-yl)-n-propylsulfonamide] | 14.3% | 26.3% | 12.5% | 0% | 0% | 24.5% | 16.7% | 16.7% | 22.2% | 47.7% | 3.3% | 0% | 35% | 55% | 40% | 75% | 95% | 20% | 25% | 10% |  |
| CC1=NNC(=O)N(NS(=O)(=O)C2CC2)C1 [Ia-5, N-(6-methyl-3-oxo-2,3-dihydro-1,2,4-triazin-4(5H)-yl)-cyclopropylsulfonamide] | 19.8% | 8% | 16.4% | 8.8% | 10.8% | 5.6% | 20.7% | 18.7% | 64.5% | 8.7% | 10.8% | 14.9% | 21% | 10% | 30% | 85% | 100% | 10% | 10% | 15% |  |
| CC1=NNC(=O)N(NS(=O)(=O)C2CCCCC2)C1 [Ia-6, N-(6-methyl-3-oxo-2,3-dihydro-1,2,4-triazin-4(5H)-yl)-cyclohexylsulfonamide] | 11.6% | 13% | 12.5% | 20.6% | 39.2% | 18.8% | 12.5% | 7.7% | 3.1% | 30.9% | 10.9% | 12.9% | 31.6% | 70% |  | 45% | 85% | 40% | 50% | 30% |  |
| CC1=NNC(=O)N(NS(=O)(=O)Cc2ccccc2)C1 [Ia-7, N-(6-methyl-3-oxo-2,3-dihydro-1,2,4-triazin-4(5H)-yl)-phenylmethylsulfonamide] | 30.2% | 15.8% | 20.8% | 0% | 41.4% | 36.7% | 38.9% | 20.8% | 33.3% | 63.6% | 30% |  | 31.7% | 70% | 20% | 75% | 100% | 0% | 0% | 35% | inhibition at 50 mg/kg (Tomato early blight): 33.3% |
| CC1=NNC(=O)N(NS(=O)(=O)c2cccc3ccccc23)C1 [Ia-8, N-(6-methyl-3-oxo-2,3-dihydro-1,2,4-triazin-4(5H)-yl)-naphthyl-1-sulfonamide] | 17.9% | 19.2% | 0% | 20.5% | 0% | 26.9% | 7.4% | 8.3% | 28.6% | 30.2% | 33.3% | 20% | 16.7% | 15% | 25% | 85% | 90% | 0% | 10% | 0% |  |
